According to PubChem BioAssay AID248 (DTP/NCI, 2004):
Where “and” joins values, the source holds several entries; their conditions need not be identical. Equal entries are not always repeated. Inconclusive results and toxic doses are left out. Rule as the data show it: active = T/C of 150% or more; inactive = T/C below 125%.

System: L1210 leukemia ip in BDF1 mice, survival T/C
Experiment: NCI In Vivo Anticancer Drug Screen. Data for tumor model L1210 Leukemia (intraperitoneal) in B6D2F1 (BDF1) mice
Conditions: endpoint: mean survival time, higher = longer survival
Procedure, shortened: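 Read-out is survival time, reported as the treated-group measurement over the vehicle-control measurement.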

[1] = dose: 100.0 mg/kg/injection, schedule: Q04DX002 (ip), vehicle: saline
[2] = dose: 200.0 mg/kg/injection, schedule: Q04DX002 (ip), vehicle: saline
[3] = dose: 400.0 mg/kg/injection, schedule: Q04DX002 (ip), vehicle: saline
[4] = dose: 50.0 mg/kg/injection, schedule: Q04DX003 (ip), vehicle: Klucel (hydroxypropylcellulose) (HPC)
[5] = dose: 100.0 mg/kg/injection, schedule: Q01DX001 (ip), vehicle: Klucel (hydroxypropylcellulose) (HPC)
[6] = dose: 100.0 mg/kg/injection, schedule: Q04DX003 (ip), vehicle: Klucel (hydroxypropylcellulose) (HPC)
[7] = dose: 200.0 mg/kg/injection, schedule: Q01DX001 (ip), vehicle: Klucel (hydroxypropylcellulose) (HPC)
[8] = dose: 200.0 mg/kg/injection, schedule: Q04DX003 (ip), vehicle: Klucel (hydroxypropylcellulose) (HPC)
[9] = dose: 400.0 mg/kg/injection, schedule: Q01DX001 (ip), vehicle: Klucel (hydroxypropylcellulose) (HPC)
[10] = dose: 400.0 mg/kg/injection, schedule: Q04DX003 (ip), vehicle: Klucel (hydroxypropylcellulose) (HPC)
[11] = dose: 100.0 mg/kg/injection, schedule: Q01DX001 (ip), vehicle: carboxymethylcellulose (CMC)
[12] = dose: 100.0 mg/kg/injection, schedule: Q04DX003 (ip), vehicle: saline with Tween-80
[13] = dose: 200.0 mg/kg/injection, schedule: Q04DX003 (ip), vehicle: saline with Tween-80
[14] = dose: 400.0 mg/kg/injection, schedule: Q04DX003 (ip), vehicle: saline with Tween-80
[15] = dose: 100.0 mg/kg/injection, schedule: Q01DX001 (ip), vehicle: saline
[16] = dose: 200.0 mg/kg/injection, schedule: Q01DX001 (ip), vehicle: saline
[17] = dose: 400.0 mg/kg/injection, schedule: Q01DX001 (ip), vehicle: saline
[18] = dose: 50.0 mg/kg/injection, schedule: Q01DX009 (ip), vehicle: Klucel (hydroxypropylcellulose) (HPC)
[19] = dose: 100.0 mg/kg/injection, schedule: Q01DX009 (ip), vehicle: Klucel (hydroxypropylcellulose) (HPC)
[20] = dose: 100.0 mg/kg/injection, schedule: Q04DX002 (ip), vehicle: Klucel (hydroxypropylcellulose) (HPC)
[21] = dose: 200.0 mg/kg/injection, schedule: Q01DX009 (ip), vehicle: Klucel (hydroxypropylcellulose) (HPC)
[22] = dose: 400.0 mg/kg/injection, schedule: Q01DX009 (ip), vehicle: Klucel (hydroxypropylcellulose) (HPC)
[23] = dose: 50.0 mg/kg/injection, schedule: Q01DX009 (ip), vehicle: saline with Tween-80
[24] = dose: 100.0 mg/kg/injection, schedule: Q01DX009 (ip), vehicle: saline with Tween-80
[25] = dose: 50.0 mg/kg/injection, schedule: Q01DX001 (ip), vehicle: saline

Measured: T/C

CCN(CC#CCOc1ccc(Br)cc1)c1ccccc1
inactive: [1] 105 % of control | [2] 101 % of control | [3] 99 % of control

CS(=O)(=O)OC1CCCCCCC1OS(C)(=O)=O (stereo unspecified)
inactive: [4] 103 % of control | [5] 98 % of control | [6] 104 % of control | [7] 98 % of control | [8] 98 % of control | [9] 104 % of control | [10] 104 % of control

O=[N+]([O-])c1ccc(N/N=C/C(Br)(Br)Br)c([N+](=O)[O-])c1
inactive: dose: 50.0 mg/kg/injection, schedule: Q01DX001 (ip), vehicle: carboxymethylcellulose (CMC) 99 % of control | [11] 94 % of control

S=C1SCN(C2CCCCCCCCCCC2)CN1C1CCCCCCCCCCC1
inactive: [12] 96 % of control | [13] 91 % of control | [14] 95 % of control

Cc1cccn(C)c1=O
inactive: [15] 95 % of control | [16] 101 % of control | [17] 96 % of control

CC(CC(CCC(CC(C)CC(C)(C)C)N(C)C)N(C)C)CC(C)(C)C (stereo unspecified)
inactive: [18] 90 % of control | dose: 50.0 mg/kg/injection, schedule: Q04DX002 (ip), vehicle: Klucel (hydroxypropylcellulose) (HPC) 93 % of control | [19] 96 % of control | [20] 87 % of control | [21] 101 % of control

CC1=CC(=O)CC(C)C2CC(=C(C)C)CC12 (stereo unspecified)
inactive: [6] 100 % of control | [8] 108 % of control | [10] 100 % of control

O=C1OC(c2ccccc2)(c2ccccc2)c2ccccc21
inactive: [19] 93 % of control | [6] 107 % of control | [21] 101 % of control | [8] 102 % of control | [22] 88 % of control | [10] 100 % of control

CC(=O)NN(c1ccccc1)c1ccccc1
inactive: [18] 98 % of control | [19] 104 % of control | [6] 93 % of control | [21] 96 % of control | [8] 86 % of control | [10] 91 % of control

O=C(c1ccccc1)C1CSSC1c1ccccc1 (stereo unspecified)
inactive: dose: 12.5 mg/kg/injection, schedule: Q04DX003 (ip), vehicle: Klucel (hydroxypropylcellulose) (HPC) 100 % of control | dose: 25.0 mg/kg/injection, schedule: Q04DX003 (ip), vehicle: Klucel (hydroxypropylcellulose) (HPC) 100 % of control | [4] 97 % of control

CCCCNS(=O)(=O)c1ccc(C(N)=S)cc1
inactive: [5] 111 % of control | [7] 106 % of control | [9] 103 % of control

CC(C)C1(C)NC(=O)NC1=O (stereo unspecified)
inactive: dose: 100.0 mg/kg/injection, schedule: Q04DX003 (ip), vehicle: saline 110 % of control | dose: 200.0 mg/kg/injection, schedule: Q04DX003 (ip), vehicle: saline 105 % of control | dose: 400.0 mg/kg/injection, schedule: Q04DX003 (ip), vehicle: saline 100 % of control

O=C(Nc1ccc(C(=O)O)cc1)Nc1cc(C(F)(F)F)ccc1Cl
inactive: [11] 93 % of control | dose: 100.0 mg/kg/injection, schedule: Q01DX009 (ip), vehicle: carboxymethylcellulose (CMC) 95 % of control and 110 % of control | dose: 100.0 mg/kg/injection, schedule: Q04DX002 (ip), vehicle: carboxymethylcellulose (CMC) 95 % of control and 97 % of control | dose: 100.0 mg/kg/injection, schedule: Q04DX003 (ip), vehicle: carboxymethylcellulose (CMC) 94 % of control | dose: 200.0 mg/kg/injection, schedule: Q01DX001 (ip), vehicle: carboxymethylcellulose (CMC) 93 % of control | dose: 200.0 mg/kg/injection, schedule: Q01DX009 (ip), vehicle: carboxymethylcellulose (CMC) 100 % of control and 90 % of control | dose: 200.0 mg/kg/injection, schedule: Q04DX002 (ip), vehicle: carboxymethylcellulose (CMC) 93 % of control and 97 % of control | dose: 200.0 mg/kg/injection, schedule: Q04DX003 (ip), vehicle: carboxymethylcellulose (CMC) 97 % of control | dose: 400.0 mg/kg/injection, schedule: Q01DX001 (ip), vehicle: carboxymethylcellulose (CMC) 93 % of control | dose: 400.0 mg/kg/injection, schedule: Q01DX009 (ip), vehicle: carboxymethylcellulose (CMC) 92 % of control | dose: 400.0 mg/kg/injection, schedule: Q04DX002 (ip), vehicle: carboxymethylcellulose (CMC) 96 % of control and 90 % of control | dose: 400.0 mg/kg/injection, schedule: Q04DX003 (ip), vehicle: carboxymethylcellulose (CMC) 96 % of control

COc1ccc(Nc2nc(N)nc(N)c2N)cc1
inactive: dose: 100.0 mg/kg/injection, schedule: Q01DX Z (ip), vehicle: saline 87 % of control

Cc1ccc(Cl)cc1NC(=O)c1ccc(Cl)cc1Cl
inactive: [19] 110 % of control | [6] 92 % of control | [21] 91 % of control | [8] 95 % of control | [22] 89 % of control | [10] 88 % of control

Nc1nc(=O)n(CC(=O)c2cccs2)cc1F
inactive: dose: 25.0 mg/kg/injection, schedule: Q01DX009 (ip), vehicle: saline with Tween-80 96 % of control | [23] 98 % of control and 87 % of control | [24] 96 % of control and 98 % of control | [12] 97 % of control | [13] 103 % of control | [14] 97 % of control

O=C1CCCC2=C1C(c1ccncc1)Nc1ccccc1N2 (stereo unspecified)
inactive: [20] 103 % of control | dose: 200.0 mg/kg/injection, schedule: Q04DX002 (ip), vehicle: Klucel (hydroxypropylcellulose) (HPC) 117 % of control | dose: 400.0 mg/kg/injection, schedule: Q04DX002 (ip), vehicle: Klucel (hydroxypropylcellulose) (HPC) 109 % of control

O=C(COc1ccc(Br)cc1Br)OCCBr
inactive: [15] 97 % of control | [16] 105 % of control | [17] 100 % of control

O=C(N/N=C/c1cccc([N+](=O)[O-])c1)c1ccccc1Cl
inactive: [23] 98 % of control | [24] 107 % of control | dose: 200.0 mg/kg/injection, schedule: Q01DX009 (ip), vehicle: saline with Tween-80 102 % of control

CCCCCCCCCCCCCCOS(=O)(=O)c1ccc(C)cc1
inactive: [25] 102 % of control | [15] 102 % of control | [16] 96 % of control | [17] 100 % of control

O=C(N/N=C/c1ccccc1)c1cc([N+](=O)[O-])cc([N+](=O)[O-])c1
inactive: [6] 90 % of control | [8] 108 % of control | [10] 101 % of control

O=S(Sc1ccc(N(CCCl)CCCl)cc1)c1ccc(N(CCCl)CCCl)cc1 (stereo unspecified)
inactive: [5] 95 % of control | dose: 100.0 mg/kg/injection, schedule: Q01DX009 (ip), vehicle: gum acacia 86 % of control | [7] 108 % of control | dose: 200.0 mg/kg/injection, schedule: Q01DX009 (ip), vehicle: gum acacia 93 % of control | [9] 93 % of control | dose: 400.0 mg/kg/injection, schedule: Q01DX009 (ip), vehicle: gum acacia 122 % of control

O=C(/C=C\c1ccc([N+](=O)[O-])cc1)OCCCCOC(=O)/C=C/c1ccc([N+](=O)[O-])cc1
inactive: [25] 93 % of control | [15] 96 % of control | [16] 90 % of control | [17] 87 % of control

Cc1[nH]c(=O)[nH]c(=O)c1N=Nc1ccccc1
inactive: dose: 25.0 mg/kg/injection, schedule: Q01DX001 (ip), vehicle: saline with Tween-80 95 % of control | dose: 50.0 mg/kg/injection, schedule: Q01DX001 (ip), vehicle: saline with Tween-80 98 % of control | dose: 100.0 mg/kg/injection, schedule: Q01DX001 (ip), vehicle: saline with Tween-80 95 % of control

OCC(O)C(O)C(O)CC(c1ccc(Cl)cc1)c1ccc(Cl)cc1 (stereo unspecified)
inactive: [25] 102 % of control | [15] 102 % of control | [16] 106 % of control | [17] 107 % of control

COc1ccc2c(c1C)CCC1(COC(C)=O)CC(C)(O)C(O)CC21 (stereo unspecified)
inactive: dose: 100.0 mg/kg/injection, schedule: Q01DX009 (ip), vehicle: saline sonified 96 % of control | dose: 200.0 mg/kg/injection, schedule: Q01DX009 (ip), vehicle: saline sonified 94 % of control | dose: 400.0 mg/kg/injection, schedule: Q01DX009 (ip), vehicle: saline sonified 93 % of control

Nc1ccc2ncccc2c1N
inactive: [1] 107 % of control | [2] 100 % of control | [3] 87 % of control
